In patent US20230085307A1, “PYRIDAZINONE COMPOUND AND HERBICIDE” (NISSAN CHEMICAL CORPORATION, priority 2019, published 2023):

Key:
southern crabgrass = assay: Test Example 4: herbicidal effect by soil treatment (Table 19, symbol F); format: in vivo, southern crabgrass (Digitaria ciliaris); details: amount of applied herbicide 320 g/ha
Outline: (§1)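 Applied as a water-diluted emulsion, the compound was sprayed onto soil covering newly sown seeds. Evaluation came three weeks after application, in a greenhouse held at 25° C. to 30° C.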

Chinese sprangletop = assay: Test Example 3: herbicidal effect by foliage application, Wagner pot (Table 18, symbol D); format: in vivo, chinese sprangletop (Leptochloa chinensis); details: amount of applied herbicide 320 g/ha
Outline: (§2)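 Plants were sown in alluvial soil held under 0.1–0.5 cm standing water and grown 14 days in a greenhouse at 25–30 °C. An emulsifiable formulation, water-diluted to the set dose, was then sprayed onto the foliage, and effects were scored three weeks later using previously defined criteria.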

lambsquarters [1] = assay: Test Example 4: herbicidal effect by soil treatment (Table 19, symbol O); format: in vivo, lambsquarters (Chenopodium album); details: amount of applied herbicide 320 g/ha
Outline: as §1

barnyard grass = assay: Test Example 5: herbicidal effect by foliage application, plastic box (Table 20, symbol H); format: in vivo, barnyard grass (Echinochloa crus-galli); details: foliage application, AAH 320 g/ha, evaluated three weeks after application
Outline: (§3)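 Sow seeds spot-wise in sterilized diluvial soil; cover with ~1.5 cm soil. Grow 14 days in greenhouse, 25° C. to 30° C. Spray foliage with emulsion diluted to predetermined amount. Rate effect after 3 weeks.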

windgrass = assay: Test Example 4: herbicidal effect by soil treatment (Table 19, symbol L); format: in vivo, windgrass (Apera spica-venti); details: amount of applied herbicide 320 g/ha
Outline: as §1

late watergrass [2] = assay: Test Example 1: herbicidal activity, application before weed generation under submerged conditions (Table 16, symbol A); format: in vivo, late watergrass (Echinochloa oryzicola); details: 320 g/ha applied herbicide
Outline: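 Emulsion formulation, water-diluted to set dose, was put onto the flooded surface (4 cm depth, alluvial soil) the same day weeds were sown and 2.5-leaf rice transplanted. After 3 weeks at 25-30 °C under glass, each species was rated 0 (≤5% kill) to 5 (≥90% kill).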

redroot pigweed = assay: Test Example 5: herbicidal effect by foliage application, plastic box (Table 20, symbol N); format: in vivo, redroot pigweed (Amaranthus retroflexus); details: foliage application, AAH 320 g/ha, evaluated three weeks after application
Outline: as §3

late watergrass [3] = assay: Test Example 2: herbicidal activity, application during weed generation under submerged conditions (Table 17, symbol A); format: in vivo, late watergrass (Echinochloa oryzicola); details: AAH 320 g/ha; application during weed generation, submerged conditions
Outline: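 Herbicide emulsion, diluted with water to the chosen amount, is applied onto 4 cm floodwater over alluvial soil where the weeds were co-sown and raised at 25–30° C. Application timing: 1–2 leaves. Assessment: three weeks afterwards.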

rice flat sedge = assay: Test Example 3: herbicidal effect by foliage application, Wagner pot (Table 18, symbol E); format: in vivo, rice flat sedge (Cyperus iria); details: amount of applied herbicide 320 g/ha
Outline: as §2

lambsquarters [4] = assay: Test Example 5: herbicidal effect by foliage application, plastic box (Table 20, symbol O); format: in vivo, lambsquarters (Chenopodium album); details: foliage application, AAH 320 g/ha, evaluated three weeks after application
Outline: as §3

wild oat [5] = assay: Test Example 4: herbicidal effect by soil treatment (Table 19, symbol I); format: in vivo, wild oat (Avena fatua); details: amount of applied herbicide 320 g/ha
Outline: as §1

chickweed [6] = assay: Test Example 5: herbicidal effect by foliage application, plastic box (Table 20, symbol P); format: in vivo, common chickweed (Stellaria media); details: foliage application, AAH 320 g/ha, evaluated three weeks after application
Outline: as §3

Italian ryegrass [7] = assay: Test Example 4: herbicidal effect by soil treatment (Table 19, symbol K); format: in vivo, Italian ryegrass (Lolium multiflorum); details: amount of applied herbicide 320 g/ha
Outline: as §1

Italian ryegrass [8] = assay: Test Example 5: herbicidal effect by foliage application, plastic box (Table 20, symbol K); format: in vivo, Italian ryegrass (Lolium multiflorum); details: foliage application, AAH 320 g/ha, evaluated three weeks after application
Outline: as §3

wild oat [9] = assay: Test Example 5: herbicidal effect by foliage application, plastic box (Table 20, symbol I); format: in vivo, wild oat (Avena fatua); details: foliage application, AAH 320 g/ha, evaluated three weeks after application
Outline: as §3

chickweed [10] = assay: Test Example 4: herbicidal effect by soil treatment (Table 19, symbol P); format: in vivo, common chickweed (Stellaria media); details: amount of applied herbicide 320 g/ha
Outline: as §1

| SMILES | herbicidal effect on F: southern crabgrass (southern crabgrass) | herbicidal effect on D: Chinese sprangletop (Chinese sprangletop) | herbicidal effect on O: lambsquarters (lambsquarters [1]) | H: barnyard grass, herbicidal effect (criteria 0-5) (barnyard grass) | herbicidal effect on L: windgrass (windgrass) | Herbicidal effect on A: late watergrass (grade 0-5) (late watergrass [2]) | N: redroot pigweed, herbicidal effect (criteria 0-5) (redroot pigweed) | herbicidal effect rating, A: late watergrass (late watergrass [3]) | herbicidal effect on E: rice flat sedge (rice flat sedge) | O: lambsquarters, herbicidal effect (criteria 0-5) (lambsquarters [4]) | herbicidal effect on I: wild oat (wild oat [5]) | P: chickweed, herbicidal effect (criteria 0-5) (chickweed [6]) | herbicidal effect on K: Italian ryegrass (Italian ryegrass [7]) | K: Italian ryegrass, herbicidal effect (criteria 0-5) (Italian ryegrass [8]) | I: wild oat, herbicidal effect (criteria 0-5) (wild oat [9]) | herbicidal effect on P: chickweed (chickweed [10]) |
| --- | --- | --- | --- | --- | --- | --- | --- | --- | --- | --- | --- | --- | --- | --- | --- | --- |
| COCCSCc1ccc(-c2sc3ccc(F)cc3c2-c2c(O)c(C)nn(C)c2=O)cc1 [2-327] | 2 (Herbicidal rate of 20% or more and less than 40%) | 3 (Herbicidal rate of 40% or more and less than 70%) | 4 (Herbicidal rate of 70% or more and less than 90%) | 5 (Herbicidal rate of 90% or more (almost completely withered)) | 0 (Herbicidal rate of 5% or less (almost no effect)) | 3 (Herbicidal rate of 40% or more and less than 70%) | 5 (Herbicidal rate of 90% or more (almost completely withered)) | 0 (Herbicidal rate of 5% or less (almost no effect)) | 4 (Herbicidal rate of 70% or more and less than 90%) | 5 (Herbicidal rate of 90% or more (almost completely withered)) | 0 (Herbicidal rate of 5% or less (almost no effect)) | 5 (Herbicidal rate of 90% or more (almost completely withered)) | 4 (Herbicidal rate of 70% or more and less than 90%) | 4 (Herbicidal rate of 70% or more and less than 90%) | 3 (Herbicidal rate of 40% or more and less than 70%) | 1 (Herbicidal rate of 5% or more and less than 20%) |
| Cc1nn(C)c(=O)c(-c2c(-c3ccc(CSCC(F)(F)F)cc3)sc3ccc(F)cc23)c1O [2-331] | 3 (Herbicidal rate of 40% or more and less than 70%) | 0 (Herbicidal rate of 5% or less (almost no effect)) | 4 (Herbicidal rate of 70% or more and less than 90%) | 5 (Herbicidal rate of 90% or more (almost completely withered)) | 0 (Herbicidal rate of 5% or less (almost no effect)) | 3 (Herbicidal rate of 40% or more and less than 70%) | 5 (Herbicidal rate of 90% or more (almost completely withered)) | 3 (Herbicidal rate of 40% or more and less than 70%) | 4 (Herbicidal rate of 70% or more and less than 90%) | 5 (Herbicidal rate of 90% or more (almost completely withered)) | 0 (Herbicidal rate of 5% or less (almost no effect)) | 5 (Herbicidal rate of 90% or more (almost completely withered)) | 5 (Herbicidal rate of 90% or more (almost completely withered)) | 4 (Herbicidal rate of 70% or more and less than 90%) | 3 (Herbicidal rate of 40% or more and less than 70%) | 0 (Herbicidal rate of 5% or less (almost no effect)) |
| Cc1nn(C)c(=O)c(-c2c(-c3ccc(C#N)cc3)sc3ccc(F)cc23)c1O [2-340] | 5 (Herbicidal rate of 90% or more (almost completely withered)) | 5 (Herbicidal rate of 90% or more (almost completely withered)) | 5 (Herbicidal rate of 90% or more (almost completely withered)) | 5 (Herbicidal rate of 90% or more (almost completely withered)) | 4 (Herbicidal rate of 70% or more and less than 90%) | 5 (Herbicidal rate of 90% or more (almost completely withered)) | 5 (Herbicidal rate of 90% or more (almost completely withered)) | 5 (Herbicidal rate of 90% or more (almost completely withered)) | 5 (Herbicidal rate of 90% or more (almost completely withered)) | 5 (Herbicidal rate of 90% or more (almost completely withered)) | 3 (Herbicidal rate of 40% or more and less than 70%) | 5 (Herbicidal rate of 90% or more (almost completely withered)) | 5 (Herbicidal rate of 90% or more (almost completely withered)) | 5 (Herbicidal rate of 90% or more (almost completely withered)) | 5 (Herbicidal rate of 90% or more (almost completely withered)) | 5 (Herbicidal rate of 90% or more (almost completely withered)) |
| CCCC(=O)Oc1c(C)nn(C)c(=O)c1-c1c(-c2ccc(F)c(F)c2)sc2ccc(F)cc12 [2-345] | 3 (Herbicidal rate of 40% or more and less than 70%) | 5 (Herbicidal rate of 90% or more (almost completely withered)) | 4 (Herbicidal rate of 70% or more and less than 90%) | 5 (Herbicidal rate of 90% or more (almost completely withered)) | 0 (Herbicidal rate of 5% or less (almost no effect)) | 4 (Herbicidal rate of 70% or more and less than 90%) | 5 (Herbicidal rate of 90% or more (almost completely withered)) | 5 (Herbicidal rate of 90% or more (almost completely withered)) | 5 (Herbicidal rate of 90% or more (almost completely withered)) | 5 (Herbicidal rate of 90% or more (almost completely withered)) | 1 (Herbicidal rate of 5% or more and less than 20%) | 5 (Herbicidal rate of 90% or more (almost completely withered)) | 0 (Herbicidal rate of 5% or less (almost no effect)) | 3 (Herbicidal rate of 40% or more and less than 70%) | 3 (Herbicidal rate of 40% or more and less than 70%) | 3 (Herbicidal rate of 40% or more and less than 70%) |
